# Patent US11173139B2, “Method for extending lifespan delaying the onset of age-related disease” (priority 2004, dated 2021)
# Experiments:
# [1] = tested on: Sir2 or SIRT1; details: cited from earlier work
# [2] = tested on: C. elegans (N2 wild type); experiment: C. elegans lifespan on oxaloacetate-containing nematode growth agar; assay type: in vivo, Caenorhabditis elegans
# Experimental: A similar set of eight control plates with the same nematode growth agar was also prepared. […] In addition, five “starter plates” were made using nematode growth agar and no 5′flurodeoxyuridine. All plates were streaked with 0.5 ml bacteria Luria broth containing E. coli as a food source for the nematodes. The bacteria were allowed to grow on the plates for several days at 37° C. prior to adding C. elegans. Ten C. elegans nematodes were transferred to each of five “starter plates” and were left on the plates for 12 hours to lay eggs. The C. elegans were then removed and the eggs were allowed to grow into young adults for two days. Ten nematodes were then transferred to each control plate and oxaloacetate plate by “picking” worms with a microprobe from the starter plate and moving it onto the target test plates. The day after the starter plates have been started with the 10 C. elegans was designated “day 0”, and was the estimated time of birth. The C. elegans were kept out of direct sunlight and were raised at a temperature of 21° C. The plates with the C. elegans were counted every day to determine the number of dead nematodes. Nematodes were scored as dead when they no longer respond to a gentle prodding with a probe. Lifespan is defined as the time elapsed from when the nematodes are hatched (lifespan=0) to when they are scored as dead. Nematodes that crawl off the plates or are otherwise lost during the assay have been excluded from calculations. The dead nematodes were removed from the plates each day with microprobe. The total population is the sum of all found dead worms. The counting of the nematodes was continued until all nematodes were dead. The data was then charted and is represented in FIG. 2. […] The highest increase in lifespan was at 16 mM (approximate 25%) for the concentrations tested, and the lowest increase was a 2 mM (approximately 10%). […] Splitomycin is a selective inhibitor for the Sir2 gene (Sir2a in yeast, Sirt1 in humnans).
# [3] = tested on: Drosophila melanogaster (Vestigal type); experiment: D. melanogaster lifespan with oxaloacetate in fly food; assay type: in vivo; details: Example 4, 16 mM in water wetting the fly food, vs control
# Description: The fruit fly Drosophila melanogaster (Vestigal type, from Carolina Biological Supply) was used as a test organism to assess the addition of oxaloacetate therapy (from Sigma Aldrich Company) applied to the cells to extend lifespan and to act as a caloric restriction “mimic”. The fruit fly is more complex than C. elegans, but the metabolic pathways that involve calorie restriction are a basic building block of life, and are conserved throughout the animal kingdom. […] A small amount of yeast was added on top of the fly food. […] The flies were kept in a room receiving reflected natural sunlight at a temperature of 21° C. Each of the flies used emerged from the pupae state within 8 hours of each other. The day the flies were moved to the test vials was designated “day 0”, reflecting the emergence of the fly into adulthood. The flies were kept out of direct sunlight and were raised at a temperature of 21° C. The food vials were prepared every 3 to 4 days and the flies transferred to prevent infestation of mites and other pathogenic microbial organisms. The vials with the flies were counted every day to determine the number of dead vs. living. Flies were scored as dead when they no longer respond to a gentle prodding with a probe. Lifespan is defined as the time elapsed from when the flies enter into adulthood (lifespan=0) to when they are scored as dead. […]
# [4] = tested on: Drosophila melanogaster; experiment: D. melanogaster lifespan under stress (food vials not changed, microbial pathogens); assay type: in vivo; details: Example 5, flies under stress
# Description: It is well known in the literature that calorie restricted animals survive stress better than the control animals fed an ad libitum diet. The data from the experiment were charted and are represented in FIG. 5.
# [5] = Weight gain of older (9 month) C57Bl/6 mice fed oxaloacetate; assay type: in vivo, C57Bl/6 type male mice; details: 0.4% oxaloacetate in the food, eating freely, 9 month old mice
# Description: C57Bl/6 type male mice approximately 9 months of age were obtained from Harlan, San Diego, Calif. as retired breeders. These mice were all born on the same day. The C57Bl/6 type mouse is inbred to reduce the genetic variation between individuals. The mice were housed in individual cages and were provided with ad libitum amounts of fortified food pellets (Kadee). The amount of food consumed was weighed daily, while the mice were weighed weekly. After two weeks, a baseline of the average food consumed by the mice was established at 7.1 grams per mouse per day. In addition, after an overnight fast, blood glucose readings for each mouse were recorded for each mouse. […] Male C57Bl/6 type mice, when allowed to eat freely, gain weight with age in a linear fashion. The mice were weighed weekly for 21 weeks, and the individual weights were recorded and averaged to form a “group average” for each of the three groups.
# [6] = tested on: liver tissue gene expression; experiment: Liver gene expression, Affymatrix Mouse Genome 430 2.0 Array, oxaloacetate and CR mice versus control mice; assay type: in vivo, C57Bl/6 mice; details: for common genes changed in same direction as calorie restriction: of the 363 common genes
# Description: Three mice of each of the three groups of the C57Bl/6 mice of Example 6 were sacrificed after 21 weeks. […] Because each group was a pooling of three mice, there are a variety of individual responses. Changes in the physical results of the group (such as weight loss, increase in health span, and increase in life span) are due to genes expressed in common by the group, not in individual variation. Thus it is important to look at the genes that changed in expression from the control group, but are commonly expressed between the calorie restricted group and the oxaloacetate supplemented group.
# [7] = tested on: C57Bl/6 mice; experiment: Lifespan and health of C57Bl/6 mice fed oxaloacetate; assay type: in vivo; details: 0.4% in food by weight, at the 21st month of life, still continuing
# [8] = mouse, in vivo
# [9] = 21 diabetic patients, 100 mg to 1,000 mg (2-10 mg/kg); cited from earlier work
# [10] = in vivo; cited from earlier work
# [11] = count of genes among those shown to change commonly
smiles,measurement,setting,value
CC=O [acetaldehyde],activity of beneficial genes,[1],did not see any increase in the activity of beneficial genes
O=C(O)CC(=O)C(=O)O [oxaloacetate],increase in maximal life span,"[2]; Example 1, 16 mM in nematode growth agar, vs control plates",40%
same,increase in average lifespan,"[2]; Example 1, 16 mM in nematode growth agar, vs control plates, 21° C.",23.6%
same,increase in lifespan,"[2]; Example 2, 2 mM in agar (lowest increase)",approximately 10%
same,increase in lifespan,"[2]; Example 2, 16 mM in agar (highest increase)",~25%
same,increase in average lifespan,[3],20%
same,maximal increase in lifespan,[4],30%
same,less weight gained than control group,[5],20%
same,percentage of common changed genes moving in same direction as calorie restriction,"[6]; 363 common genes, liver, Table 1",98%
same,"Gene Movement in Same Direction?, Cyp2b9","[6]; Affymatrix No. 3985, OX versus CR, both to control",YES
same,"Gene Movement in Same Direction?, similar to cytochrome P450 2B4-rat (LOC232993)","[6]; Affymatrix No. 17655, OX versus CR, both to control",YES
same,Percentage of Genes Moving in Same Direction as Calorie Restricted Mice,"[6]; Table 2, 1.7 fold cut off",100.0%
same,Mice Fed Oxaloacetate with Genes Moving in Opposite Direction as Calorie Restricted Mice,[6]; [11],7
same,Mice Fed Oxaloacetate with Genes Moving in Same Direction as Calorie Restricted Mice,[6]; [11],356
same,Percentage of Mice Fed Oxaloacetate with Genes Moving in Same Direction as Calorie Restricted Mice,[6]; genes shown to change commonly,98.1%
same,common genes changed in same direction as calorie restriction,[6]; liver,357 genes
same,common genes changed in same direction as calorie restriction,"[6]; liver, listed as Oxaloacetate",356 genes
same,genes with measurable change in expression versus control,"[6]; pooled liver of three mice, 21 weeks",765 genes
same,genes changed in common with calorie restricted mice versus control,"[6]; pooled liver, 21 weeks",363 genes
same,increase in lifespan over control group,[7],≥ 10%
same,toxicity,[8],negative toxicity
same,side effects,[9],no negative side effects
same,LD50,[10],above 5 g/kg of body weight
"O=C1CCc2c(ccc3ccccc23)O1 [splitomycin, reference compound]",lifespan compared with control group,"[2]; Example 3, FIG. 3, inhibited Sir2 function, no oxaloacetate",lived for shorter periods than the control group
